Measurements as given in the supplement of paper PMC10307832.

Legend:
Assay in all cases: relative viability (nuclei count vs DMSO), 5 days (fraction); higher = more cells survive
Seliciclib + Trametinib = compound: CC[C@H](CO)Nc1nc(NCc2ccccc2)c2ncn(C(C)C)c2n1 [Seliciclib] + CC(=O)Nc1cccc(-n2c(=O)n(C3CC3)c(=O)c3c(Nc4ccc(I)cc4F)n(C)c(=O)c(C)c32)c1 [Trametinib] (partner 0.02 µM)
Summary of the method: (§1)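 Lung cancer cell lines, seeded in 1536-well plates, were treated the following day by pin tool with a single drug or with five library-drug doses (not always all listed) in √10 steps on top of a fixed anchor-drug dose. Cells were fixed and nuclei stained in one step after 5 days, and nuclei were counted. Relative viability is the nuclei count for treated wells divided by that for vehicle wells, reported as medians of duplicate plates.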

Seliciclib + Bortezomib = compound: CC[C@H](CO)Nc1nc(NCc2ccccc2)c2ncn(C(C)C)c2n1 [Seliciclib] + CC(C)C[C@H](NC(=O)[C@H](Cc1ccccc1)NC(=O)c1cnccn1)B(O)O [Bortezomib] (partner 0.002 µM)
Summary of the method: as §1

Seliciclib + Pictilisib = compound: CC[C@H](CO)Nc1nc(NCc2ccccc2)c2ncn(C(C)C)c2n1 [Seliciclib] + CS(=O)(=O)N1CCN(Cc2cc3nc(-c4cccc5[nH]ncc45)nc(N4CCOCC4)c3s2)CC1 [Pictilisib] (partner 1 µM)
Summary of the method: as §1

Seliciclib + Olaparib = compound: CC[C@H](CO)Nc1nc(NCc2ccccc2)c2ncn(C(C)C)c2n1 [Seliciclib] + O=C(c1cc(Cc2n[nH]c(=O)c3ccccc23)ccc1F)N1CCN(C(=O)C2CC2)CC1 [Olaparib] (partner 8 µM)
Summary of the method: as §1

Cell Line | relative viability (Seliciclib + Trametinib; first compound 0.08 µM) | relative viability (Seliciclib + Trametinib; first compound 0.253 µM) | relative viability (Seliciclib + Trametinib; first compound 0.8 µM) | relative viability (Seliciclib + Trametinib; first compound 2.53 µM) | relative viability (Seliciclib + Trametinib; first compound 8 µM) | relative viability (Seliciclib + Bortezomib; first compound 0.08 µM) | relative viability (Seliciclib + Bortezomib; first compound 0.253 µM) | relative viability (Seliciclib + Bortezomib; first compound 0.8 µM) | relative viability (Seliciclib + Bortezomib; first compound 2.53 µM) | relative viability (Seliciclib + Bortezomib; first compound 8 µM) | relative viability (Seliciclib + Pictilisib; first compound 0.08 µM) | relative viability (Seliciclib + Pictilisib; first compound 0.253 µM) | relative viability (Seliciclib + Pictilisib; first compound 0.8 µM) | relative viability (Seliciclib + Pictilisib; first compound 2.53 µM) | relative viability (Seliciclib + Pictilisib; first compound 8 µM) | relative viability (Seliciclib + Olaparib; first compound 0.08 µM) | relative viability (Seliciclib + Olaparib; first compound 0.253 µM) | relative viability (Seliciclib + Olaparib; first compound 0.8 µM) | relative viability (Seliciclib + Olaparib; first compound 2.53 µM) | relative viability (Seliciclib + Olaparib; first compound 8 µM)
NCI-H2405 | 0.631 | 0.44 | 0.664 | 0.509 | 0.591 | 0.984 | 0.956 | 0.946 | 0.922 | 0.905 | 0.462 | 0.43 | 0.314 | 0.288 | 0.35 | 0.88 | 0.939 | 0.934 | 0.739 | 0.724
NCI-H3122 | 0.225 | 0.136 | 0.234 | 0.211 | 0.221 | 1.03 | 1.04 | 0.995 | 0.973 | 0.967 | 0.607 | 0.63 | 0.432 | 0.509 | 0.506 | 0.632 | 0.589 | 0.62 | 0.697 | 0.615
PC-3 [JPC-3] | 0.754 | 0.861 | 0.721 | 0.577 | 0.528 | 0.895 | 0.911 | 0.738 | 0.695 | 0.742 | 0.825 | 0.954 | 0.652 | 0.712 | 0.652 | 1.05 | 1.25 | 1.06 | 1.1 | 0.978
PC-14 | 0.788 | 0.529 | 0.719 | 0.721 | 0.532 | 0.832 | 0.836 | 0.877 | 0.846 | 0.701 | 0.622 | 0.67 | 0.69 | 0.808 | 0.513 | 0.286 | 0.285 | 0.29 | 0.343 | 0.266
RERF-LC-KJ | 0.872 | 0.748 | 0.807 | 0.824 | 0.744 | 1.04 | 1.02 | 1.09 | 1.14 | 1.07 | 0.431 | 0.511 | 0.633 | 0.59 | 0.443 | 0.963 | 0.883 | 0.937 | 0.823 | 0.708
SK-LU-1 | 0.548 | 0.426 | 0.54 | 0.601 | 0.415 | 1.07 | 1.23 | 1.3 | 1.08 | 0.771 | 0.615 | 0.641 | 0.762 | 0.556 | 0.526 | 0.411 | 0.543 | 0.478 | 0.404 | 0.34
SW 1573 | 0.561 | 0.48 | 0.566 | 0.57 | 0.341 | 0.923 | 0.876 | 1.02 | 1.02 | 0.868 | 0.494 | 0.516 | 0.428 | 0.516 | 0.474 | 0.473 | 0.487 | 0.527 | 0.471 | 0.425
UMC-11 | 0.726 | 0.593 | 0.877 | 0.657 | 0.581 | 0.715 | 0.932 | 0.831 | 0.827 | 0.529 | 0.919 | 0.891 | 0.854 | 0.8 | 0.7 | 0.367 | 0.388 | 0.381 | 0.352 | 0.293
